Assay results as given in patent publication US11111317B2, “Cordyceps militaris medium polysaccharide, method for separating and purifying same, and use thereof” (SOUTH CHINA NORMAL UNIVERSITY, priority 2018, dated 2021).

Tested on: hyperuricemia model mice
Experiment: Uric acid lowering ability in hyperuricemia model mice (xanthine + oteracil potassium)
Assay type: in vivo
Conditions: positive group 50 mg/kg by gavage, seven days, mouse serum
Description: Sixty male mice are randomly divided into six groups after one week's feeding, with 10 mice in each group, including a blank group, a model group, a high P1 dose group (400 mg/kg), a middle P1 dose group (200 mg/kg), a low P1 dose group (100 mg/kg) and a positive drug (50 mg/kg) control group. Every morning, the model group, the positive control group and the high, middle and low P1 dose groups are administered with 600 mg/kg of xanthine (ig) by gavage+100 mg/kg of oteracil potassium (ip) by intraperitoneal injection, fasting but water available for one hour before the model is made, and the blank group is administered with the same dose of normal saline. In the afternoon, the high, middle and low P1 dose groups are administered with the polysaccharide suspension by gavage; the positive control group is administered with 50 mg/kg of allopurinol suspension by gavage; the model group and the blank group are administered with the same volume of normal saline by gavage for seven consecutive days.
On the seventh day, 1 hour after administration in the afternoon, the mice are weighed and decapitated for blood collection. The blood is centrifuged at 3000 r/min for 10 min after being placed at room temperature for 40 min, and the upper layer of the serum is pipetted. Serum uric acid (UA), serum creatinine (CREA) and serum urea nitrogen (BUN) values are measured by kits to investigate the effects of the polysaccharide P1 on UA, CREA and BUN, as well as renal functions in the hyperuricemia model mice.

Oc1ncnc2[nH]ncc12 [Positive, allopurinol]
BUN (serum urea nitrogen): 6.99 ± 1.10 mmol/L | CREA (serum creatinine): 71.69 ± 8.43 µmol/L | UA (serum uric acid): 108.83 ± 6.53 µmol/L
